Reference: US6737383B1, “Herbicidal oxadiazolidines” (priority 1999, dated 2004)

Assays:
Alexandergrass = assay: Test D Alexandergrass; assay type: in vivo, Brachiaria plantaginea; conditions: Postemergence, 0 to 100 scale
common poppy = assay: Test E common poppy; assay type: in vivo, Papaver rhoeas; conditions: Postemergence; for Plant response rating, Common poppy: 0 to 100 scale
In short: (§1)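 Compound formulated with surfactant in a non-phytotoxic solvent (postemergence: young 1- to 4-leaf plants); held in greenhouse approx. 21–28 days; visual assessment against untreated plants.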

guineagrass = assay: Test D guineagrass; assay type: in vivo, Panicum maximum; conditions: Postemergence, 0 to 100 scale
corn = assay: Test C postemergence corn; assay type: in vivo, Zea mays; conditions: 0 to 100 scale, 0 no effect, 100 complete control
Method: (§2) Compounds evaluated in this test were formulated in a non-phytotoxic solvent mixture which included a surfactant and applied to plants that were grown for various periods of time before treatment (postemergence application). A mixture of sandy loam soil and greenhouse potting mix in a 60:40 ratio was used for the postemergence test.
(§3) Plantings of these crops and weed species were adjusted to produce plants of appropriate size for the postemergence test. All plant species were grown using normal greenhouse practices. Crop and weed species include arrowleaf sida (Sida rhombifolia), barnyardgrass (Echinochloa crus-galli), cocklebur (Xanthium strumarium), common ragweed (Ambrosia elatior), corn (Zea mays), cotton (Gossypium hirsutum), eastern black nightshade (Solanum ptycanthum), fall panicum (Panicum dichotomiflorum), field bindweed (Convolvulus arvensis), giant foxtail (Setaria faberii), hairy beggarticks (Bidens pilosa), ivyleaf morningglory (Ipomoea hederacea), johnsongrass (Sorghum halepense), ladysthumb smartweed (Polygonum persicaria), lambsquarters (Chenopodium album), large crabgrass (Digitaria sanguinalis), purple nutsedge (Cyperus rotundus), redroot pigweed (Amaranthus retroflexus), soybean (Glycine max), surinam grass (Brachiaria decumbens), velvetleaf (Abutilon theophrasti) and wild poinsettia (Euphorbia heterophylla).
(§4) Treated plants and untreated controls were maintained in a greenhouse for approximately 14, to 21 days, after which all treated plants were compared to untreated controls and visually evaluated. Plant response ratings, summarized in Table C, were based upon a 0 to 100 scale where 0 was no effect and 100 was complete control. A dash response (−) means no test result.

downy brome = assay: Test E downy brome; assay type: in vivo, Bromus tectorum; conditions: Postemergence; for Plant response rating, Downy brome: 0 to 100 scale
Method: as §2, with “in the 1- to 4-leaf stage” for “grown for various periods of time before treatment”
(§5) Plantings of these crops and weed species were adjusted to produce plants of appropriate size for the postemergence test. All plant species were grown using normal greenhouse practices. Crop and weed species include annual bluegrass (Poa annua), blackgrass (Alopecurus myosuroides), black nightshade (Solanum nigra), chickweed (Stellaria media), common poppy (Papaver rhoeas), deadnettle (Lamium amplexicaule), downy brome (Bromus tectorum), field violet (Viola arvensis), galium (Galium aparine), green foxtail (Setaria viridis), Italian ryegrass (Lolium multiflorum), jointed goatgrass (Aegilops cylindrica), kochia (Kochia scoparia), lambsquarters (Chenopodium album), littleseed canarygrass (Phalaris minor), rape (Brassica napus), redroot pigweed (Amaranthus retroflexus), Russian thistle (Salsola kali), scentless chamomile (Matricaria inodora), spring barley (Hordeum vulgare), sugar beet (Beta vulgaris), sunflower (Helianthus annuus), ivyleaf speedwell (Veronica hederaefolia), spring wheat (Triticum aestivum), winter wheat (Triticum aestivum), wild buckwheat (Polygonum convolvulus), wild mustard (Sinapis arvensis), wild oat (Avena fatua), windgrass (Apera spica-venti) and winter barley (Hordeum vulgare).
(§6) Treated plants and untreated controls were maintained in a greenhouse for approximately 21 to 28 days, after which all treated plants were compared to untreated controls and visually evaluated. […] A dash response (-) means no test result.

redroot pigweed [1] = assay: Test E redroot pigweed; assay type: in vivo, Amaranthus retroflexus; conditions: Postemergence; for Plant response rating, Redroot pigweed: 0 to 100 scale
In short: as §1

Green foxtail = assay: Test D green foxtail; assay type: in vivo; conditions: Rate 250 g/ha; Postemergence; 0 to 100 scale
redroot pigweed [2] = assay: Test E redroot pigweed; assay type: in vivo, Amaranthus retroflexus; conditions: Preemergence
dallisgrass = assay: Test D dallisgrass; assay type: in vivo, Paspalum dilatatum; conditions: Postemergence, 0 to 100 scale
bermuda-grass = assay: Test D bermudagrass; assay type: in vivo, Cynodon dactylon; conditions: Postemergence, 0 to 100 scale
jointed goatgrass = assay: Test E jointed goatgrass; assay type: in vivo, Aegilops cylindrica; conditions: Postemergence; for Plant response rating, Jointed goatgra: 0 to 100 scale
In short: as §1

barnyardgrass = assay: Test C postemergence barnyardgrass; assay type: in vivo, Echinochloa crus-galli; conditions: 0 to 100 scale, 0 no effect, 100 complete control
Method: as §2, §3, §4

spring barley = assay: Test E spring barley; assay type: in vivo, Hordeum vulgare; conditions: Postemergence; for Plant response rating, Spring Barley: 0 to 100 scale
Method: as §2, with “in the 1- to 4-leaf stage” for “grown for various periods of time before treatment”
as §5, §6

Spanishneedles = assay: Test D Spanishneedles; assay type: in vivo, Bidens bipinnata; conditions: Postemergence, 0 to 100 scale
redroot pigweed [3] = assay: Test C postemergence redroot pigweed; assay type: in vivo, Amaranthus retroflexus; conditions: 0 to 100 scale, 0 no effect, 100 complete control
Method: as §2, §3, §4

johnsongrass = assay: Test C postemergence johnsongrass; assay type: in vivo, Sorghum halepense; conditions: 0 to 100 scale, 0 no effect, 100 complete control
Method: as §2, §3, §4

[4] = Rate 16 g/ha, 0 no injury, 100 complete control
[5] = Rate 32 g/ha, 0 no injury, 100 complete control
[6] = Rate 64 g/ha, 0 no injury, 100 complete control
[7] = Rate 125 g/ha, 0 no injury, 100 complete control
[8] = Rate 125 g/ha, 0 is no effect, 100 is complete control
[9] = Rate 250 g/ha, 0 to 100 scale where 0 is no effect and 100 is complete control
[10] = Rate 500 g/ha, 0 is no effect, 100 is complete control

CC(C)N(C(=O)n1oc(=O)n(C2CC2)c1=O)c1ccc(F)cc1 [Compound 242]
Plant response rating, Alexandergrass (Alexandergrass; [4]): 0 | Plant response rating, Alexandergrass (Alexandergrass; [5]): 50 | Plant response rating, Alexandergrass (Alexandergrass; [6]): 90 | Plant response rating, Alexandergrass (Alexandergrass; [7]): 100 | Plant response rating, Alexandergrass (Alexandergrass; Rate 250 g/ha): 100 | Plant response rating, Common poppy (common poppy; Rate 62 g/ha): 55 | Plant response rating, Common poppy (common poppy; [8]): 40 | Common poppy plant response rating (common poppy; [9]): 20 | Plant response rating, Common poppy (common poppy; [10]): 0 | Plant response rating, Guineagrass (guineagrass; [4]): 0 | Plant response rating, Guineagrass (guineagrass; [5]): 100 | Guineagrass plant response rating (guineagrass; [6]): 80 | Plant response rating, Guineagrass (guineagrass; [6]): 0 | Plant response rating, Guineagrass (guineagrass; [7]): 100 | Plant response rating, Guineagrass (guineagrass; Rate 250 g/ha): 100 | Plant response rating, Corn (corn; Rate 140 g/ha): 0 | Plant response rating, Corn (corn; Rate 280 g/ha): 0 | Plant response rating, Corn (corn; Rate 560 g/ha): 0 | Plant response rating, Corn (corn; Rate 1120 g/ha): 20 | Plant response rating, Downy brome (downy brome; Rate 62 g/ha): 30 | Plant response rating, Downy brome (downy brome; [8]): 30 | Downy brome plant response rating (downy brome; [9]): 30 | Plant response rating, Downy brome (downy brome; [10]): 40 | Plant response rating, Redroot pigweed (redroot pigweed [1]; Rate 62 g/ha): 0 | Plant response rating, Redroot pigweed (redroot pigweed [1]; [8]): 0 | Redroot pigweed plant response rating (redroot pigweed [1]; [9]): 0 | Plant response rating, Redroot pigweed (redroot pigweed [1]; [10]): 40 | Plant response rating, Green foxtail (Green foxtail): 100 | Plant response rating, Redroot pigweed (redroot pigweed [2]; Rate 125 g/ha, 0 to 100 scale (0 no effect, 100 complete control)): 90 | Redroot pigweed plant response rating (0 to 100 scale) (redroot pigweed [2]; Rate 250 g/ha): 100 | Plant response rating, Redroot pigweed (redroot pigweed [2]; Rate 500 g/ha, 0 to 100 scale where 0 is no effect and 100 is complete control): 100 | Plant response rating, Dallisgrass (dallisgrass; [4]): 60 | Plant response rating, Dallisgrass (dallisgrass; [5]): 90 | Plant response rating, Dallisgrass (dallisgrass; [6]): 90 | Plant response rating, Dallisgrass (dallisgrass; [7]): 100 | Plant response rating, Dallisgrass (dallisgrass; Rate 250 g/ha): 100 | Plant response rating, Bermudagrass (bermuda-grass; [4]): 90 | Plant response rating, Bermudagrass (bermuda-grass; [5]): 100 | Plant response rating, Bermudagrass (bermuda-grass; [6]): 100 | Plant response rating, Bermudagrass (bermuda-grass; [7]): 100 | Plant response rating, Bermudagrass (bermuda-grass; Rate 250 g/ha): 100 | Plant response rating, Jointed goatgra (jointed goatgrass; Rate 62 g/ha): 55 | Plant response rating, Jointed goatgra (jointed goatgrass; [8]): 0 | Jointed goatgra plant response rating (jointed goatgrass; [9]): 0 | Plant response rating, Jointed goatgra (jointed goatgrass; [10]): 40 | Plant response rating, Barnyardgrass (barnyardgrass; Rate 140 g/ha): 80 | Plant response rating, Barnyardgrass (barnyardgrass; Rate 280 g/ha): 85 | Plant response rating, Barnyardgrass (barnyardgrass; Rate 560 g/ha): 90 | Plant response rating, Barnyardgrass (barnyardgrass; Rate 1120 g/ha): 95 | Plant response rating, Spring Barley (spring barley; Rate 62 g/ha): 5 | Plant response rating, Spring Barley (spring barley; [8]): 20 | Spring Barley plant response rating (spring barley; [9]): 20 | Plant response rating, Spring Barley (spring barley; [10]): 20 | Plant response rating, Spanishneedles (Spanishneedles; [4]): 0 | Plant response rating, Spanishneedles (Spanishneedles; [5]): 0 | Spanishneedles plant response rating (Spanishneedles; [6]): 0 | Spanishneedles plant response rating (Spanishneedles; [7]): 0 | Plant response rating, Spanishneedles (Spanishneedles; Rate 250 g/ha): 100 | Plant response rating, Redroot pigweed (redroot pigweed [3]; Rate 140 g/ha): 0 | Plant response rating, Redroot pigweed (redroot pigweed [3]; Rate 280 g/ha): 0 | Plant response rating, Redroot pigweed (redroot pigweed [3]; Rate 560 g/ha): 10 | Plant response rating, Redroot pigweed (redroot pigweed [3]; Rate 1120 g/ha): 50 | Plant response rating, Johnsongrass (johnsongrass; Rate 140 g/ha): 45 | Plant response rating, Johnsongrass (johnsongrass; Rate 280 g/ha): 45 | Plant response rating, Johnsongrass (johnsongrass; Rate 560 g/ha): 60 | Plant response rating, Johnsongrass (johnsongrass; Rate 1120 g/ha): 90

CC(C)N(C(=O)n1oc(=O)n(C2CCCCCC2)c1=O)c1ccc(F)cc1F [Compound 342]
Plant response rating, Alexandergrass (Alexandergrass; [4]): 0 | Plant response rating, Alexandergrass (Alexandergrass; [5]): 0 | Plant response rating, Alexandergrass (Alexandergrass; [6]): 0 | Plant response rating, Alexandergrass (Alexandergrass; [7]): 70 | Plant response rating, Alexandergrass (Alexandergrass; Rate 250 g/ha): 80 | Plant response rating, Guineagrass (guineagrass; [4]): 0 | Plant response rating, Guineagrass (guineagrass; [5]): 0 | Guineagrass plant response rating (guineagrass; [6]): 0 | Plant response rating, Guineagrass (guineagrass; [6]): 80 | Plant response rating, Guineagrass (guineagrass; [7]): 50 | Plant response rating, Guineagrass (guineagrass; Rate 250 g/ha): 90 | Plant response rating, Green foxtail (Green foxtail): 100 | Plant response rating, Dallisgrass (dallisgrass; [4]): 0 | Plant response rating, Dallisgrass (dallisgrass; [5]): 0 | Plant response rating, Dallisgrass (dallisgrass; [6]): 0 | Plant response rating, Dallisgrass (dallisgrass; [7]): 90 | Plant response rating, Dallisgrass (dallisgrass; Rate 250 g/ha): 100 | Plant response rating, Bermudagrass (bermuda-grass; [4]): 20 | Plant response rating, Bermudagrass (bermuda-grass; [5]): 30 | Plant response rating, Bermudagrass (bermuda-grass; [6]): 90 | Plant response rating, Bermudagrass (bermuda-grass; [7]): 100 | Plant response rating, Bermudagrass (bermuda-grass; Rate 250 g/ha): 100 | Plant response rating, Spanishneedles (Spanishneedles; [4]): 0 | Plant response rating, Spanishneedles (Spanishneedles; [5]): 0 | Spanishneedles plant response rating (Spanishneedles; [6]): 0 | Spanishneedles plant response rating (Spanishneedles; [7]): 0 | Plant response rating, Spanishneedles (Spanishneedles; Rate 250 g/ha): 0
